Data on three molecules can be found in ChEMBL document CHEMBL1817605, “Development of a highly selective fluorescence probe for alkaline phosphatase” (Bioorg Med Chem Lett, 2011).

Assay [1] can be described thus: Activity of alkaline phosphatase by Michaelis-Menten equation analysis.
The target of assay [2] is Serine/threonine-protein phosphatase PP1-alpha catalytic subunit (Homo sapiens) (UniProt P62136). Kind of assay: Activity of PP1 alpha.
Assay [3] addresses T1, Tyrosine-protein phosphatase non-receptor type 1 (Homo sapiens) (UniProt P18031).
T1 sequence (whole entry): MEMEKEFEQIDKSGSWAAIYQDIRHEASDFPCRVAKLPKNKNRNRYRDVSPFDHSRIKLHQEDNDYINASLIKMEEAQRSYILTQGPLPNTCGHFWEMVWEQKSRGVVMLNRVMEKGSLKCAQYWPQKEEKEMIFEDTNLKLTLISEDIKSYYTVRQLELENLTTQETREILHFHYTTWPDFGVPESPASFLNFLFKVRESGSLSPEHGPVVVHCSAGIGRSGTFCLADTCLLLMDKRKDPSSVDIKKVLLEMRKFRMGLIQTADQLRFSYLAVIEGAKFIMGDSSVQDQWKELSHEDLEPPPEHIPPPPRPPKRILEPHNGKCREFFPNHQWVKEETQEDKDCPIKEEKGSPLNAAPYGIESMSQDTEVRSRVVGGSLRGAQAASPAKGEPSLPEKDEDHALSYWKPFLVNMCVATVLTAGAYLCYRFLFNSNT
Kind of assay: Activity of PTP1B.

Assay [4] in a line: Ratio of Vmax to Km for alkaline phosphatase.
A short description of assay [5]: Activity of alkaline phosphatase at 2 uM measured every 2 mins from up to 30 mins by fluorometric analysis.

Activity calls are given as the source filed them. No cut-off for these calls is given here.

Serine/threonine-protein phosphatase PP1-alpha catalytic subunit (Homo sapiens), sequence (P62136 whole entry): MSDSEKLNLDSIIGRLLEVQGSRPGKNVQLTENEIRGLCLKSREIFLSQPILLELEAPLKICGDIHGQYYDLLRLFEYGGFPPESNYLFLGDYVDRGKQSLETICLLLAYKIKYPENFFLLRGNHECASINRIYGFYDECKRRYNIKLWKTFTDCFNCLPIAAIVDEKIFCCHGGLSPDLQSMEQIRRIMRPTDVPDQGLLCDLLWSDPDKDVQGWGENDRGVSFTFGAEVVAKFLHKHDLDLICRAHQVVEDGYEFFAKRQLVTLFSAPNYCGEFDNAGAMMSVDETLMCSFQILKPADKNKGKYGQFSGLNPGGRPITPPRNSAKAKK

The Km is the concentration of substrate that gives half-maximal velocity. A word on the Vmax: it is the rate approached at saturating substrate. Consider `COc1ccc(-c2c3ccc(=O)cc-3oc3cc(OCOP(=O)(O)O)ccc23)c(C)c1`, for which, in assay [1], the Km was 0.77 µM and the Vmax worked out at 0.033 µM/min. Further, in assay [2], the result was inactive. The result in assay [3] was inactive. The Vmax/Km in assay [4] is 0.043 min⁻¹. The outcome in assay [5] was Active.
Turning to `O=C1OC2(c3ccc(OP(=O)(O)O)cc3Oc3cc(OP(=O)(O)O)ccc32)c2ccccc21`, the result in assay [3] and in assay [5] was Active.
With `COc1ccc(-c2c3ccc(=O)cc-3oc3cc(OP(=O)(O)O)ccc23)c(C)c1`, the Km in assay [1] amounted to 0.96 µM. Moreover, in assay [1], the Vmax is 0.025 µM/min. The outcome in assay [2], in assay [3] and in assay [5] was Active. Further, the Vmax/Km in assay [4] is 0.026 min⁻¹.
